Values after ≈ are worked out from the molar mass of the structure shown. Active and inactive are the calls of the source. No cut-off for these calls is given here.
Experiments:
[1] = Chemical stability of the compound assessed as compound degradation at 16 times MIC after 24 hrs by RP-HPLC analysis; format: physicochemical
[2] = system: Staphylococcus aureus; test: Antibacterial activity against methicillin-resistant Staphylococcus aureus OC2878 assessed as log reduction in bacterial count at 8 times MIC after 24 hrs by time kill study; format: functional
[3] = system: Staphylococcus aureus; test: Antibacterial activity against methicillin-resistant Staphylococcus aureus OC2878 by broth macrodilution method
[4] = system: Staphylococcus aureus; test: Antibacterial activity against methicillin-resistant Staphylococcus aureus OC2878 assessed as inhibition of bacterial regrowth at 16 times MIC after 8 hrs by dynamic time kill study; format: functional, organism-based
[5] = system: Staphylococcus aureus; test: Antibacterial activity against methicillin-resistant Staphylococcus aureus OC2878 assessed as inhibition of bacterial regrowth at 16 times MIC after 24 hrs by dynamic time kill study; format: functional, organism-based

SMILES	Stability [1]	log10cfu [2]	MIC [3] [µg/mL]	inhibition [4]	inhibition [5]
CC(=O)NC[C@H]1CN(c2ccc(N3CCOCC3)c(F)c2)C(=O)O1 [LINEZOLID]	Stable	2	1 (≈ 2.96 µM)	inactive	–
CC(=O)NC[C@H]1CN(c2ccc(N3Cc4cn(C)nc4C3)c(F)c2)C(=O)O1	–	2	0.5 (≈ 1.34 µM)	–	Active
